How the values were obtained:
Experiment in all cases: relative viability (nuclei count vs DMSO), 5 days (fraction); higher = more cells survive
[1] = compound: Cn1c(=O)n(-c2ccc(C(C)(C)C#N)cc2)c2c3cc(-c4cnc5ccccc5c4)ccc3ncc21 [Dactolisib] + CC1(C)CCC(c2ccc(Cl)cc2)=C(CN2CCN(c3ccc(C(=O)NS(=O)(=O)c4ccc(N[C@H](CCN5CCOCC5)CSc5ccccc5)c(S(=O)(=O)C(F)(F)F)c4)cc3)CC2)C1 [Navitoclax] (partner 0.5 µM)
Procedure, shortened: (§1)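 After 5 days of treatment, lung cancer cells in 1536-well plates were fixed and stained in a single step (final 0.05% Triton X-100, 1% formaldehyde, 1 ug/ml Hoechst) and their nuclei counted on 4× images. Treatment had been applied by pin tool the day after seeding as one drug alone or as a fixed anchor-drug dose with five library-drug doses (not always all listed) in √10 steps. Relative viability is the nuclei count of treated wells divided by that of vehicle wells, and values are medians of duplicate plates.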

[2] = compound: Cn1c(=O)n(-c2ccc(C(C)(C)C#N)cc2)c2c3cc(-c4cnc5ccccc5c4)ccc3ncc21 [Dactolisib] + C[C@]1(O)C[C@@H](c2nc(-c3ccc4ccc(-c5ccccc5)nc4c3)c3c(N)nccn32)C1 [Linsitinib] (partner 1 µM)
Procedure, shortened: as §1

[3] = compound: C1CCC(CC1)N(CCNCCC2=C3C(=C(C=C2)O)NC(=O)CO3)C(=O)CCNCCC4=CC(=C(C=C4)Cl)Cl [AZ505] + COc1cccc2cc(-c3nc([C@H]4CC[C@H](C(=O)O)CC4)n4ncnc(N)c34)[nH]c12 [OSI-027] (partner 0.5 µM)
Procedure, shortened: as §1

[4] = compound: C1CCC(CC1)N(CCNCCC2=C3C(=C(C=C2)O)NC(=O)CO3)C(=O)CCNCCC4=CC(=C(C=C4)Cl)Cl [AZ505] + O=C(CCCCCCC(=O)Nc1ccccc1)NO [Vorinostat] (partner 1 µM)
Procedure, shortened: as §1

Cell Line | relative viability ([1]; first compound 0.002 µM) | relative viability ([1]; first compound 0.006325 µM) | relative viability ([1]; first compound 0.02 µM) | relative viability ([1]; first compound 0.06325 µM) | relative viability ([1]; first compound 0.2 µM) | relative viability ([2]; first compound 0.002 µM) | relative viability ([2]; first compound 0.006325 µM) | relative viability ([2]; first compound 0.02 µM) | relative viability ([2]; first compound 0.06325 µM) | relative viability ([2]; first compound 0.2 µM) | relative viability ([3]; first compound 0.08 µM) | relative viability ([3]; first compound 0.253 µM) | relative viability ([3]; first compound 0.8 µM) | relative viability ([3]; first compound 2.53 µM) | relative viability ([3]; first compound 8 µM) | relative viability ([4]; first compound 0.8 µM) | relative viability ([4]; first compound 2.53 µM) | relative viability ([4]; first compound 8 µM) | relative viability ([4]; first compound 0.08 µM) | relative viability ([4]; first compound 0.253 µM)
HCC-78 | 0.784 | 0.791 | 0.543 | 0.288 | 0.251 | 0.476 | 0.457 | 0.383 | 0.223 | 0.207 | 0.386 | 0.33 | 0.37 | 0.438 | 0.466 | 0.444 | 0.597 | 0.508 | – | –
HCC-366 | 1 | 0.961 | 1.07 | 0.67 | 0.498 | 0.561 | 0.453 | 0.487 | 0.185 | 0.0961 | 0.817 | 0.635 | 0.948 | 0.764 | 0.924 | 0.344 | 0.354 | 0.377 | 0.356 | 0.393
HCC-827 | 1.03 | 1.02 | 1.06 | 0.905 | 0.687 | 1.02 | 0.919 | 1.03 | 0.911 | 0.699 | 0.691 | 0.844 | 0.753 | 0.846 | 0.847 | 0.7 | 0.92 | 0.924 | 0.906 | 0.732
HOP-62 | 1.24 | 1.08 | 1.06 | 0.353 | 0.613 | 1.04 | 0.626 | 0.873 | 0.447 | 0.342 | 0.708 | 0.838 | 0.801 | 0.895 | 0.826 | 0.658 | 0.628 | 0.732 | 0.607 | 0.605
IA-LM | 0.819 | 0.579 | 0.564 | 0.116 | 0.0832 | 0.681 | 0.613 | 0.6 | 0.124 | 0.206 | – | – | – | – | – | 0.933 | – | 1.17 | 0.878 | –
LC-2-ad | 0.453 | – | 0.285 | 0.189 | 0.159 | 0.722 | – | 0.751 | 0.488 | 0.565 | 0.747 | 0.759 | 0.629 | 0.876 | 0.912 | 0.689 | 0.708 | 0.772 | 0.657 | 0.712
LCLC-97TM1 | 0.503 | 0.33 | 0.3 | 0.202 | 0.192 | 0.157 | 0.186 | 0.208 | 0.157 | 0.132 | 0.389 | 0.335 | 0.495 | 0.395 | 0.644 | 0.748 | – | 0.984 | 0.625 | 0.746
LCLC-103H | – | – | – | – | – | 1.06 | 1.07 | 0.934 | 0.661 | 0.531 | 0.447 | 0.472 | 0.447 | 0.496 | 0.476 | 0.694 | 0.695 | 0.735 | 0.682 | 0.689
NCI-H358 | – | – | – | – | – | 0.848 | 0.641 | 0.549 | 0.293 | 0.211 | 0.715 | 0.769 | 0.652 | 0.556 | 0.767 | 0.834 | 0.633 | 0.69 | 0.665 | 1.03
NCI-H522 | – | – | – | – | – | – | – | – | – | – | 0.713 | 0.583 | 0.691 | 0.812 | 0.809 | 0.927 | 0.874 | 0.818 | 0.688 | 0.909
NCI-H650 | – | – | – | – | – | 1.26 | 0.752 | 0.697 | 0.576 | 0.415 | 0.503 | 0.552 | 0.529 | 0.671 | 0.54 | 0.348 | 0.567 | 0.556 | 0.395 | 0.425
NCI-H661 | – | – | – | – | – | 0.453 | 0.454 | 0.505 | 0.223 | 0.23 | 0.681 | 0.8 | 0.666 | 0.695 | 0.715 | 0.797 | 0.75 | 0.888 | 0.744 | 0.818
NCI-H1299 | 1.06 | 1.1 | 1.08 | 0.986 | 1.03 | 0.979 | 0.929 | 1.01 | 0.573 | 0.608 | – | – | – | – | – | – | – | – | – | –
NCI-H1563 | – | – | – | – | – | 1.25 | 1.11 | 1.02 | 0.62 | 0.654 | 0.801 | 0.811 | 0.789 | 0.702 | 0.735 | – | – | – | – | –
NCI-H1623 | – | – | – | – | – | – | – | – | – | – | 0.423 | 0.405 | 0.452 | 0.476 | 0.398 | – | – | – | – | –
NCI-H1648 | – | – | – | – | – | – | – | – | – | – | 0.282 | 0.272 | 0.295 | 0.305 | 0.267 | 0.418 | 0.526 | 0.573 | – | 0.43
NCI-H1650 | 1.18 | 0.998 | 0.83 | 0.337 | 0.416 | – | – | – | – | – | 0.7 | 0.677 | 0.672 | 0.554 | 0.806 | 0.605 | 0.725 | 0.457 | 0.54 | 0.602
NCI-H1703 | 0.875 | 1.03 | 0.684 | 0.365 | 0.229 | – | 0.637 | 0.891 | 0.417 | 0.468 | – | – | – | – | – | – | – | – | – | –
NCI-H1792 | 0.823 | 0.692 | 0.582 | 0.381 | 0.181 | 0.57 | 0.483 | 0.382 | 0.112 | 0.0865 | 0.712 | – | 0.687 | 0.718 | 0.739 | – | – | – | – | –
NCI-H2170 | 0.58 | 0.512 | 0.473 | 0.217 | 0.198 | – | – | – | – | – | 0.743 | 0.677 | 0.684 | 0.738 | 0.793 | 0.749 | 0.859 | 0.823 | 0.659 | 0.851
NCI-H2342 | – | – | – | – | – | – | – | – | – | – | 0.604 | 0.712 | 0.765 | 0.587 | 0.671 | 0.84 | 0.866 | 0.83 | 0.799 | 0.844
SW 900 | – | – | – | – | – | – | – | – | – | – | 0.441 | 0.427 | 0.623 | 0.753 | 0.702 | 0.43 | 0.675 | 0.678 | 0.536 | 0.303

Source: the supplement of paper PMC10307832
